Laboratory results from ChEMBL document CHEMBL1125432, “Generation of N-methyl-D-aspartate agonist and competitive antagonist pharmacophore models. Design and synthesis of phosphonoalkyl-substituted tetrahydroisoquinolines as novel antagonists” (J Med Chem, 1992).

Legend:
Glutamate NMDA receptor [1] = test: Ability to displace [3H]CPP from NMDA receptor in rat brain membrane; assay type: cell membranes
Glutamate NMDA receptor [2] = test: Displacement of [3H]CPP from N-methyl-D-aspartate glutamate receptor in rat brain membrane; assay type: cell membranes
[3] = molecular target: T1, Glutamate NMDA receptor (Rattus norvegicus) (UniProt P35439+Q00959+Q00960+Q00961+Q62645+Q8VHN2+Q9R1M7); test: Ability to displace [3H]CPP from NMDA receptor in rat brain membrane was evaluated at 10e-4 M; assay type: cell membranes
Glutamate NMDA receptor [4] = test: Compound was evaluated for its ability to displace [3H]Glu/[3H]-AP5 from rat brain membrane; assay type: tissue-based
[5] = molecular target: T1, Glutamate NMDA receptor (Rattus norvegicus); test: Ability to displace [3H]CPP from N-methyl-D-aspartate glutamate receptor in rat brain membrane was evaluated at 10e-4 M; assay type: cell membranes

Molecule `Cc1cc(CP(=O)(O)O)cc(C(=O)O)n1` has an IC50 (Glutamate NMDA receptor [1]) of 10 µM.

`O=C(O)C1NCCc2cc(CP(=O)(O)O)ccc21` (configuration not stated) showed an IC50 (Glutamate NMDA receptor [2]) of 61 µM.

Molecule `O=C(O)C1NCCc2ccc(P(=O)(O)O)cc21` (configuration not stated) has an IC50 (Glutamate NMDA receptor [1]) of 2.7 µM.

In the case of `O=C(O)C1Cc2ccc(CCP(=O)(O)O)cc2CN1` (configuration not stated), the inhibition [3] is reported as 0%.

`O=C(O)[C@@H]1C[C@H](CP(=O)(O)O)CCN1` [SELFOTEL] gave an IC50 (Glutamate NMDA receptor [1]) of 0.054 µM.

For `N[C@H](C(=O)O)[C@@H]1C[C@@H]1C(=O)O`, the IC50 (Glutamate NMDA receptor [2]) was under 0.1 µM.

Molecule `NC(CCCC(=O)O)C(=O)O` (configuration not stated) has an IC50 (Glutamate NMDA receptor [1]) of 13 µM.

`O=C(O)[C@H]1CCCN[C@@H]1C(=O)O` gave an IC50 (Glutamate NMDA receptor [4]) of 10 µM.

`NC(CCCP(=O)(O)O)C(=O)O` (configuration not stated) showed an IC50 (Glutamate NMDA receptor [2]) of 0.28 µM.

With `C/C(=C\C(N)C(=O)O)CP(=O)(O)O` (configuration not stated) [CGP-37849] the IC50 (Glutamate NMDA receptor [1]) was 0.035 µM.

`N[C@H](CC(=O)O)C(=O)O` [D-ASPARTATE] showed an IC50 (Glutamate NMDA receptor [2]) of 10 µM.

For `NC(C(=O)O)c1cc(=O)[nH]o1` (configuration not stated), the IC50 (Glutamate NMDA receptor [1]) was 10 µM.

For `O=C(O)CNCc1cccc(CP(=O)(O)O)c1`, the IC50 (Glutamate NMDA receptor [1]) was 2.2 µM.

`O=C(O)CCCN1CCN[C@@H](C(=O)O)C1` showed an IC50 (Glutamate NMDA receptor [1]) of 0.79 µM.

Work on `NC(C(=O)O)c1ccc(CCCP(=O)(O)O)cc1` (configuration not stated) yielded an IC50 (Glutamate NMDA receptor [1]) of over 100 µM.

`O=C(O)C1CC(CCP(=O)(O)O)C2CCCCC2N1` (configuration not stated) was tested, and the IC50 (Glutamate NMDA receptor [1]) was 100 µM.

Molecule `O=C(O)C1CN(CCCP(=O)(O)O)C(=O)CN1` (configuration not stated) has an IC50 (Glutamate NMDA receptor [2]) of 32 µM.

`NC(Cc1cccc(CCP(=O)(O)O)c1)C(=O)O` (configuration not stated) showed an IC50 (Glutamate NMDA receptor [1]) of over 100 µM.

`Cc1cc(C(N)C(=O)O)c(C)cc1CP(=O)(O)O` (configuration not stated) showed an IC50 (Glutamate NMDA receptor [1]) of 21 µM.

In the case of `NC(CCP(=O)(O)O)C(=O)O` (configuration not stated), the IC50 (Glutamate NMDA receptor [2]) is reported as over 100 µM.

In the case of `O=C(O)C1NCCc2ccc(CP(=O)(O)O)cc21` (configuration not stated), the IC50 (Glutamate NMDA receptor [2]) is reported as 37.2 µM.

`NC(Cc1cccc(CP(=O)(O)O)c1)C(=O)O` (configuration not stated) was tested, and the IC50 (Glutamate NMDA receptor [1]) was 2.8 µM and the IC50 (Glutamate NMDA receptor [2]) was 3.3 µM.

For `O=C(O)CNCc1ccc(CP(=O)(O)O)cc1`, the IC50 (Glutamate NMDA receptor [2]) was 5.2 µM.

`O=C(O)C1Cc2c(CCP(=O)(O)O)cccc2CN1` (configuration not stated) gave an IC50 (Glutamate NMDA receptor [1]) of 0.27 µM.

With `O=C(O)CCc1cccc2c1CCNC2C(=O)O` (configuration not stated) the IC50 (Glutamate NMDA receptor [2]) was 14.5 µM.

In the case of `O=C(O)C1CN(Cc2ccccc2P(=O)(O)O)CCN1` (configuration not stated), the IC50 (Glutamate NMDA receptor [2]) is reported as over 100 µM.

Molecule `NC(Cc1ccccc1P(=O)(O)O)C(=O)O` (configuration not stated) has an inhibition [3] of 3% and an IC50 (Glutamate NMDA receptor [1]) of over 100 µM.

`NC(CCCCC(N)C(=O)O)C(=O)O` (configuration not stated) was tested, and the IC50 (Glutamate NMDA receptor [2]) was over 100 µM.

For `N[C@H](C(=O)O)[C@H]1C[C@H]1C(=O)O`, the IC50 (Glutamate NMDA receptor [2]) was 10 µM.

`NC(C(=O)O)c1cccc(C(=O)O)c1` (configuration not stated) gave an IC50 (Glutamate NMDA receptor [2]) of 25 µM.

`O=C(O)CNC/C=C/CP(=O)(O)O` was tested, and the IC50 (Glutamate NMDA receptor [2]) was 1.2 µM.

Molecule `O=C(O)C1CC(CP(=O)(O)O)c2ccccc2N1` (configuration not stated) has an IC50 (Glutamate NMDA receptor [1]) of 0.85 µM.

Work on `NC(C[S+]([O-])CP(=O)(O)O)C(=O)O` (configuration not stated) yielded an IC50 (Glutamate NMDA receptor [1]) of 0.14 µM.

`N[C@@H](CC(=O)O)C(=O)O` [ASPARTIC ACID] was tested, and the IC50 (Glutamate NMDA receptor [2]) was 10 µM.

`NC(CCCCP(=O)(O)O)C(=O)O` (configuration not stated) showed an IC50 (Glutamate NMDA receptor [2]) of 42 µM.

Molecule `Cc1o[nH]c(=O)c1C(N)C(=O)O` (configuration not stated) has an IC50 (Glutamate NMDA receptor [4]) of 110 µM.

`O=C(O)C1NCCc2ccc(CCP(=O)(O)O)cc21` (configuration not stated) gave an inhibition [5] of 22%.

With `O=C(O)[C@H]1CN(C(c2ccccc2)P(=O)(O)O)CCN1` (some centres not stated) the IC50 (Glutamate NMDA receptor [1]) was 5.8 µM and the IC50 (Glutamate NMDA receptor [2]) was over 13.3 µM.

Molecule `NC(C#CP(=O)(O)O)C(=O)O` (configuration not stated) has an IC50 (Glutamate NMDA receptor [1]) of 0.45 µM.

Molecule `O=C(O)C1Cc2cc(CP(=O)(O)O)ccc2CN1` (configuration not stated) has an IC50 (Glutamate NMDA receptor [1]) of 4.08 µM.

For `O=C(O)C1CN(CCCP(=O)(O)O)CCN1` (configuration not stated), the IC50 (Glutamate NMDA receptor [1]) was 0.082 µM.

`O=C(O)C1Cc2ccc(CP(=O)(O)O)cc2CN1` (configuration not stated) gave an inhibition [3] of 0%.

`O=C1CN(CCCP(=O)(O)O)CC(C(=O)O)N1` (configuration not stated) gave an IC50 (Glutamate NMDA receptor [2]) of 30 µM.

`O=C(O)C1Cc2c(cccc2P(=O)(O)O)CN1` (configuration not stated) was tested, and the IC50 (Glutamate NMDA receptor [1]) was 0.82 µM.

Work on `O=C(O)CNCc1ccccc1CP(=O)(O)O` yielded an IC50 (Glutamate NMDA receptor [1]) of over 100 µM.

With `NC(C(=O)O)c1ccc(CP(=O)(O)O)o1` (configuration not stated) the IC50 (Glutamate NMDA receptor [1]) was 5.9 µM.

For `CC([C@H]1CCN[C@H](C(=O)O)C1)P(=O)(O)O` (some centres not stated), the IC50 (Glutamate NMDA receptor [2]) was 0.8 µM.

Molecule `O=C(O)C1CN(C2CCC(P(=O)(O)O)C2)CCN1` (configuration not stated) has an IC50 (Glutamate NMDA receptor [1]) of 1.6 µM.

In the case of `NC(C/C=C/P(=O)(O)O)C(=O)O` (configuration not stated), the IC50 (Glutamate NMDA receptor [1]) is reported as over 10 µM.

In the case of `NC(Cc1ccc(P(=O)(O)O)cc1)C(=O)O` (configuration not stated), the IC50 (Glutamate NMDA receptor [1]) is reported as over 100 µM and the inhibition [5] is reported as 10%.

For `NC(Cc1ccc(CP(=O)(O)O)cc1)C(=O)O` (configuration not stated), the IC50 (Glutamate NMDA receptor [1]) was over 100 µM and the inhibition [5] was 1%.

For `NC(C(=O)O)C1CCC(CP(=O)(O)O)CC1` (configuration not stated), the IC50 (Glutamate NMDA receptor [1]) was 13 µM.

Molecule `C=C(C)[C@@H]1CN[C@@H](C(=O)O)[C@@H]1CC(=O)O` has an IC50 (Glutamate NMDA receptor [4]) of 100 µM.

With `NC(C(=O)O)c1cc(CP(=O)(O)O)cc(-c2ccccc2)c1` (configuration not stated) the IC50 (Glutamate NMDA receptor [2]) was 50 µM.

`N[C@@]1(C(=O)O)CC[C@H](C(=O)O)C1` was tested, and the IC50 (Glutamate NMDA receptor [2]) was 10 µM.

In the case of `O=C(O)C1NCCc2c1cccc2P(=O)(O)O` (configuration not stated), the inhibition [5] is reported as 0%.

Work on `O=C(O)[C@H]1NCCC[C@H]1C(=O)O` yielded an IC50 (Glutamate NMDA receptor [4]) of 100 µM.

Work on `NC(C(=O)O)c1ccc(CCP(=O)(O)O)cc1` (configuration not stated) yielded an IC50 (Glutamate NMDA receptor [1]) of over 100 µM.

`O=C(O)c1cccnc1C(=O)O` [QUINOLINIC ACID] was tested, and the IC50 (Glutamate NMDA receptor [4]) was 100 µM.

Molecule `NC(C(=O)O)c1ccc(P(=O)(O)O)cc1` (configuration not stated) has an IC50 (Glutamate NMDA receptor [2]) of over 100 µM.

`O=C(O)C1Cc2ccc(P(=O)(O)O)cc2CN1` (configuration not stated) gave an inhibition [3] of 0%.

With `O=C(O)C1NCCC2CCC(P(=O)(O)O)CC21` (configuration not stated) the IC50 (Glutamate NMDA receptor [2]) was 5.6 µM.

In the case of `NC(C(=O)O)c1ccc(CP(=O)(O)O)c2ccccc12` (configuration not stated), the IC50 (Glutamate NMDA receptor [1]) is reported as 74 µM.

`NC(Cc1ccccc1CP(=O)(O)O)C(=O)O` (configuration not stated) showed an IC50 (Glutamate NMDA receptor [1]) of 8.4 µM.

Work on `O=C(O)[C@H]1CCN[C@H](C(=O)O)C1` yielded an IC50 (Glutamate NMDA receptor [4]) of 100 µM.

Work on `Cc1c(CP(=O)(O)O)ccnc1C(=O)O` yielded an IC50 (Glutamate NMDA receptor [2]) of over 100 µM.

For `NC(CC(=O)NCP(=O)(O)O)C(=O)O` (configuration not stated), the IC50 (Glutamate NMDA receptor [2]) was 2.8 µM.

`NC(C(=O)O)c1cccc(CCP(=O)(O)O)c1` (configuration not stated) gave an inhibition [3] of 35% and an IC50 (Glutamate NMDA receptor [1]) of over 100 µM.

`O=C(O)C1Cc2c(cccc2CP(=O)(O)O)CN1` (configuration not stated) gave an IC50 (Glutamate NMDA receptor [1]) of 1.95 µM.

Work on `NC(CCCCCP(=O)(O)O)C(=O)O` (configuration not stated) [AP-7] yielded an IC50 (Glutamate NMDA receptor [2]) of 0.77 µM.

`NC(C(=O)O)c1ccc(CP(=O)(O)O)cc1` (configuration not stated) gave an IC50 (Glutamate NMDA receptor [1]) of 0.99 µM.

`O=C(O)C1CN(Cc2ccccc2CP(=O)(O)O)CCN1` (configuration not stated) was tested, and the IC50 (Glutamate NMDA receptor [2]) was over 100 µM.

`NC(Cc1cccc(C(Br)P(=O)(O)O)c1)C(=O)O` (configuration not stated) was tested, and the IC50 (Glutamate NMDA receptor [1]) was 50 µM.

For `O=C(O)CNCc1cccc(P(=O)(O)O)c1`, the IC50 (Glutamate NMDA receptor [1]) was over 100 µM.

Molecule `O=C(O)C1CC(CP(=O)(O)O)C2CCCCC2N1` (configuration not stated) has an IC50 (Glutamate NMDA receptor [1]) of 9.2 µM.

`O=C(O)C1CN(Cc2cccc(P(=O)(O)O)c2)CCN1` (configuration not stated) showed an IC50 (Glutamate NMDA receptor [1]) of 83 µM.

`N[C@@H](CNCP(=O)(O)O)C(=O)O` was tested, and the IC50 (Glutamate NMDA receptor [2]) was 4.3 µM.

Molecule `NC(C(=O)O)c1ccc(CP(=O)(O)O)s1` (configuration not stated) has an IC50 (Glutamate NMDA receptor [1]) of 0.66 µM.

`O=C(O)Cc1cccnc1C(=O)O` showed an IC50 (Glutamate NMDA receptor [1]) of 10 µM.

`O=P(O)(O)CCCN1CCNCC1` showed an IC50 (Glutamate NMDA receptor [1]) of over 100 µM.

In the case of `NC(C(=O)O)c1ccc(CP(=O)(O)O)cc1Br` (configuration not stated), the IC50 (Glutamate NMDA receptor [1]) is reported as 24 µM.
